Source: the supplement of paper PMC8612539
≈ marks a conversion by molar mass, not a printed value.

Test system: Histophilus somni
Assay: minimum inhibitory concentration (MIC)
Protocol: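 Broth microdilution MIC (Sensititre BOPO7F bovine plate, CLSI methods) of 19 antimicrobials against field isolates of P. multocida, M. haemolytica, H. somni (deep nasopharyngeal swabs) and E. coli, Enterococcus spp. (rectal swabs) from weaned dairy heifers. Incubation 16-24 h at 35 C. MIC is the lowest concentration preventing visible growth. Values with <= or > lie at the tested range limits. Trimethoprim-sulfamethoxazole is given as the trimethoprim component of a 1:19 mixture.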

CCCNC[C@]1(O)[C@H](C)O[C@@H](O[C@H]2[C@H](C)[C@@H](O[C@@H]3O[C@H](C)C[C@H](N(C)C)[C@H]3O)[C@](C)(O)C[C@@H](C)CN[C@H](C)[C@@H](O)[C@](C)(O)[C@@H](CC)OC(=O)[C@@H]2C)C[C@@]1(C)OC [Tulathromycin]
Settings	minimum inhibitory concentration [µg/mL]
isolate (source animal id): 3	≤ 8
isolate (source animal id): 4	≤ 8
isolate (source animal id): 7	≤ 8
isolate (source animal id): 14	≤ 8
isolate (source animal id): 15	≤ 8
isolate (source animal id): 17	≤ 8
isolate (source animal id): 18	≤ 8
isolate (source animal id): 20	≤ 8
isolate (source animal id): 23	≤ 8
isolate (source animal id): 45	≤ 8
isolate (source animal id): 53	≤ 8
isolate (source animal id): 83	≤ 8
isolate (source animal id): 88	≤ 8
isolate (source animal id): 92	16 (≈ 19.8 µM)
isolate (source animal id): 93	≤ 8
isolate (source animal id): 99	≤ 8
isolate (source animal id): 100	16 (≈ 19.8 µM)
isolate (source animal id): 105	≤ 8
isolate (source animal id): 107	≤ 8
isolate (source animal id): 108	≤ 8
isolate (source animal id): 109	≤ 8
isolate (source animal id): 110	16 (≈ 19.8 µM)
isolate (source animal id): 117	≤ 8
isolate (source animal id): 121	≤ 8
isolate (source animal id): 123	≤ 8
isolate (source animal id): 124	≤ 8
isolate (source animal id): 127	≤ 8
isolate (source animal id): 128	≤ 8
isolate (source animal id): 130	16 (≈ 19.8 µM)
isolate (source animal id): 132	≤ 8
isolate (source animal id): 135	≤ 8
isolate (source animal id): 140	≤ 8
isolate (source animal id): 141	≤ 8
isolate (source animal id): 142	> 64
isolate (source animal id): 144	≤ 8
isolate (source animal id): 146	16 (≈ 19.8 µM)
isolate (source animal id): 147	> 64
isolate (source animal id): 151	≤ 8
isolate (source animal id): 153	16 (≈ 19.8 µM)
isolate (source animal id): 154	> 64
isolate (source animal id): 156	> 64
isolate (source animal id): 157	16 (≈ 19.8 µM)
isolate (source animal id): 176	≤ 8
isolate (source animal id): 183	≤ 8
isolate (source animal id): 186	≤ 8
isolate (source animal id): 196	≤ 8
isolate (source animal id): 198	≤ 8
isolate (source animal id): 200	16 (≈ 19.8 µM)
isolate (source animal id): 206	≤ 8
isolate (source animal id): 208	≤ 8
isolate (source animal id): 210	≤ 8
isolate (source animal id): 212	≤ 8
isolate (source animal id): 215	≤ 8
isolate (source animal id): 216	16 (≈ 19.8 µM)
isolate (source animal id): 218	≤ 8
isolate (source animal id): 219	≤ 8
isolate (source animal id): 224	≤ 8
isolate (source animal id): 228	≤ 8
isolate (source animal id): 230	≤ 8
isolate (source animal id): 233	≤ 8
isolate (source animal id): 238	≤ 8
isolate (source animal id): 239	≤ 8
isolate (source animal id): 241	≤ 8
isolate (source animal id): 242	≤ 8
isolate (source animal id): 243	≤ 8
isolate (source animal id): 245	≤ 8
isolate (source animal id): 246	≤ 8
isolate (source animal id): 247	≤ 8
isolate (source animal id): 248	≤ 8
isolate (source animal id): 250	≤ 8
isolate (source animal id): 251	≤ 8
isolate (source animal id): 252	≤ 8
isolate (source animal id): 254	≤ 8
isolate (source animal id): 258	≤ 8
isolate (source animal id): 259	≤ 8
isolate (source animal id): 262	≤ 8
isolate (source animal id): 264	≤ 8
isolate (source animal id): 265	≤ 8
isolate (source animal id): 266	≤ 8
isolate (source animal id): 267	≤ 8
isolate (source animal id): 269	≤ 8
isolate (source animal id): 271	≤ 8
isolate (source animal id): 272	≤ 8
isolate (source animal id): 274	≤ 8
isolate (source animal id): 276	≤ 8
isolate (source animal id): 278	≤ 8
isolate (source animal id): 280	≤ 8
isolate (source animal id): 281	≤ 8
isolate (source animal id): 283	≤ 8
isolate (source animal id): 288	≤ 8
isolate (source animal id): 291	≤ 8
isolate (source animal id): 292	≤ 8
isolate (source animal id): 296	≤ 8
isolate (source animal id): 306	≤ 8
isolate (source animal id): 336	16 (≈ 19.8 µM)
isolate (source animal id): 337	16 (≈ 19.8 µM)
isolate (source animal id): 341	≤ 8

COc1cc(Cc2cnc(N)nc2N)cc(OC)c1OC.Cc1cc(NS(=O)(=O)c2ccc(N)cc2)no1 [trimethoprim-sulfamethoxazole]
Settings	minimum inhibitory concentration [µg/mL]
isolate (source animal id): 3	≤ 2
isolate (source animal id): 4	> 2
isolate (source animal id): 7	> 2
isolate (source animal id): 14	> 2
isolate (source animal id): 15	≤ 2
isolate (source animal id): 17	> 2
isolate (source animal id): 18	≤ 2
isolate (source animal id): 20	> 2
isolate (source animal id): 23	≤ 2
isolate (source animal id): 45	> 2
isolate (source animal id): 53	> 2
isolate (source animal id): 83	≤ 2
isolate (source animal id): 88	> 2
isolate (source animal id): 92	≤ 2
isolate (source animal id): 93	≤ 2
isolate (source animal id): 99	≤ 2
isolate (source animal id): 100	≤ 2
isolate (source animal id): 105	≤ 2
isolate (source animal id): 107	≤ 2
isolate (source animal id): 108	≤ 2
isolate (source animal id): 109	≤ 2
isolate (source animal id): 110	≤ 2
isolate (source animal id): 117	> 2
isolate (source animal id): 121	> 2
isolate (source animal id): 123	≤ 2
isolate (source animal id): 124	≤ 2
isolate (source animal id): 127	≤ 2
isolate (source animal id): 128	> 2
isolate (source animal id): 130	≤ 2
isolate (source animal id): 132	> 2
isolate (source animal id): 135	> 2
isolate (source animal id): 140	> 2
isolate (source animal id): 141	≤ 2
isolate (source animal id): 142	≤ 2
isolate (source animal id): 144	≤ 2
isolate (source animal id): 146	≤ 2
isolate (source animal id): 147	≤ 2
isolate (source animal id): 151	> 2
isolate (source animal id): 153	≤ 2
isolate (source animal id): 154	≤ 2
isolate (source animal id): 156	≤ 2
isolate (source animal id): 157	≤ 2
isolate (source animal id): 176	≤ 2
isolate (source animal id): 183	≤ 2
isolate (source animal id): 186	≤ 2
isolate (source animal id): 196	≤ 2
isolate (source animal id): 198	≤ 2
isolate (source animal id): 200	≤ 2
isolate (source animal id): 206	≤ 2
isolate (source animal id): 208	≤ 2
isolate (source animal id): 210	≤ 2
isolate (source animal id): 212	≤ 2
isolate (source animal id): 215	≤ 2
isolate (source animal id): 216	≤ 2
isolate (source animal id): 218	≤ 2
isolate (source animal id): 219	≤ 2
isolate (source animal id): 224	≤ 2
isolate (source animal id): 228	≤ 2
isolate (source animal id): 230	≤ 2
isolate (source animal id): 233	> 2
isolate (source animal id): 238	> 2
isolate (source animal id): 239	> 2
isolate (source animal id): 241	≤ 2
isolate (source animal id): 242	≤ 2
isolate (source animal id): 243	≤ 2
isolate (source animal id): 245	> 2
isolate (source animal id): 246	≤ 2
isolate (source animal id): 247	≤ 2
isolate (source animal id): 248	≤ 2
isolate (source animal id): 250	≤ 2
isolate (source animal id): 251	≤ 2
isolate (source animal id): 252	≤ 2
isolate (source animal id): 254	≤ 2
isolate (source animal id): 258	≤ 2
isolate (source animal id): 259	≤ 2
isolate (source animal id): 262	≤ 2
isolate (source animal id): 264	≤ 2
isolate (source animal id): 265	> 2
isolate (source animal id): 266	≤ 2
isolate (source animal id): 267	≤ 2
isolate (source animal id): 269	≤ 2
isolate (source animal id): 271	≤ 2
isolate (source animal id): 272	> 2
isolate (source animal id): 274	≤ 2
isolate (source animal id): 276	≤ 2
isolate (source animal id): 278	≤ 2
isolate (source animal id): 280	> 2
isolate (source animal id): 281	≤ 2
isolate (source animal id): 283	≤ 2
isolate (source animal id): 288	≤ 2
isolate (source animal id): 291	> 2
isolate (source animal id): 292	≤ 2
isolate (source animal id): 296	≤ 2
isolate (source animal id): 306	≤ 2
isolate (source animal id): 336	≤ 2
isolate (source animal id): 337	≤ 2
isolate (source animal id): 341	≤ 2

NC[C@@H]1O[C@H](O[C@H]2[C@@H](O)[C@H](O[C@@H]3[C@@H](O)[C@H](N)C[C@H](N)[C@H]3O[C@H]3O[C@H](CN)[C@@H](O)[C@H](O)[C@H]3N)O[C@@H]2CO)[C@H](N)[C@@H](O)[C@@H]1O [Neomycin]
Settings	minimum inhibitory concentration [µg/mL]
isolate (source animal id): 3	32 (≈ 52.1 µM)
isolate (source animal id): 4	32 (≈ 52.1 µM)
isolate (source animal id): 7	16 (≈ 26 µM)
isolate (source animal id): 14	16 (≈ 26 µM)
isolate (source animal id): 15	32 (≈ 52.1 µM)
isolate (source animal id): 17	16 (≈ 26 µM)
isolate (source animal id): 18	32 (≈ 52.1 µM)
isolate (source animal id): 20	≤ 4
isolate (source animal id): 23	32 (≈ 52.1 µM)
isolate (source animal id): 45	32 (≈ 52.1 µM)
isolate (source animal id): 53	32 (≈ 52.1 µM)
isolate (source animal id): 83	32 (≈ 52.1 µM)
isolate (source animal id): 88	32 (≈ 52.1 µM)
isolate (source animal id): 92	> 32
isolate (source animal id): 93	8 (≈ 13 µM)
isolate (source animal id): 99	> 32
isolate (source animal id): 100	> 32
isolate (source animal id): 105	32 (≈ 52.1 µM)
isolate (source animal id): 107	> 32
isolate (source animal id): 108	> 32
isolate (source animal id): 109	> 32
isolate (source animal id): 110	> 32
isolate (source animal id): 117	16 (≈ 26 µM)
isolate (source animal id): 121	16 (≈ 26 µM)
isolate (source animal id): 123	32 (≈ 52.1 µM)
isolate (source animal id): 124	32 (≈ 52.1 µM)
isolate (source animal id): 127	32 (≈ 52.1 µM)
isolate (source animal id): 128	16 (≈ 26 µM)
isolate (source animal id): 130	16 (≈ 26 µM)
isolate (source animal id): 132	16 (≈ 26 µM)
isolate (source animal id): 135	16 (≈ 26 µM)
isolate (source animal id): 140	16 (≈ 26 µM)
isolate (source animal id): 141	16 (≈ 26 µM)
isolate (source animal id): 142	> 32
isolate (source animal id): 144	> 32
isolate (source animal id): 146	> 32
isolate (source animal id): 147	> 32
isolate (source animal id): 151	32 (≈ 52.1 µM)
isolate (source animal id): 153	> 32
isolate (source animal id): 154	> 32
isolate (source animal id): 156	32 (≈ 52.1 µM)
isolate (source animal id): 157	> 32
isolate (source animal id): 176	32 (≈ 52.1 µM)
isolate (source animal id): 183	32 (≈ 52.1 µM)
isolate (source animal id): 186	> 32
isolate (source animal id): 196	> 32
isolate (source animal id): 198	> 32
isolate (source animal id): 200	> 32
isolate (source animal id): 206	> 32
isolate (source animal id): 208	> 32
isolate (source animal id): 210	> 32
isolate (source animal id): 212	32 (≈ 52.1 µM)
isolate (source animal id): 215	> 32
isolate (source animal id): 216	> 32
isolate (source animal id): 218	> 32
isolate (source animal id): 219	> 32
isolate (source animal id): 224	> 32
isolate (source animal id): 228	32 (≈ 52.1 µM)
isolate (source animal id): 230	32 (≈ 52.1 µM)
isolate (source animal id): 233	> 32
isolate (source animal id): 238	16 (≈ 26 µM)
isolate (source animal id): 239	32 (≈ 52.1 µM)
isolate (source animal id): 241	32 (≈ 52.1 µM)
isolate (source animal id): 242	32 (≈ 52.1 µM)
isolate (source animal id): 243	32 (≈ 52.1 µM)
isolate (source animal id): 245	> 32
isolate (source animal id): 246	32 (≈ 52.1 µM)
isolate (source animal id): 247	32 (≈ 52.1 µM)
isolate (source animal id): 248	≤ 4
isolate (source animal id): 250	32 (≈ 52.1 µM)
isolate (source animal id): 251	32 (≈ 52.1 µM)
isolate (source animal id): 252	32 (≈ 52.1 µM)
isolate (source animal id): 254	32 (≈ 52.1 µM)
isolate (source animal id): 258	> 32
isolate (source animal id): 259	> 32
isolate (source animal id): 262	32 (≈ 52.1 µM)
isolate (source animal id): 264	8 (≈ 13 µM)
isolate (source animal id): 265	> 32
isolate (source animal id): 266	> 32
isolate (source animal id): 267	> 32
isolate (source animal id): 269	> 32
isolate (source animal id): 271	> 32
isolate (source animal id): 272	> 32
isolate (source animal id): 274	32 (≈ 52.1 µM)
isolate (source animal id): 276	≤ 4
isolate (source animal id): 278	> 32
isolate (source animal id): 280	> 32
isolate (source animal id): 281	> 32
isolate (source animal id): 283	> 32
isolate (source animal id): 288	> 32
isolate (source animal id): 291	32 (≈ 52.1 µM)
isolate (source animal id): 292	> 32
isolate (source animal id): 296	> 32
isolate (source animal id): 306	> 32
isolate (source animal id): 336	> 32
isolate (source animal id): 337	> 32
isolate (source animal id): 341	> 32
